Here are results for two compounds from patent publication US6989393B2, “Ccr5 modulators benzimidazoles or benzotriazoles” (AstraZeneca AB, priority 2000, dated 2006).

The term melting point denotes the temperature of the solid-liquid transition. Turning to `c1ccc(C(CCN2CCC(n3cnc4ccccc43)CC2)c2ccccc2)cc1` [Example 2, 1-[1-(3,3-Diphenylpropyl)-piperidin-4-yl]benzimidazole], the melting point lay in the range of 156 to 157 °C.

`N#CC(CCN1CCC(n2cnc3ccccc32)CC1)(c1ccccc1)c1ccccc1` [Example 19, 1-[1-(3-Cyano-3,3-diphenylpropyl)-piperidin-4-yl]benzimidazole]: the melting point was in the range of 172 to 173 °C.
